Measurements published in patent US4277478A, “Antibiotic and use thereof” (priority 1975, dated 1981).

Columns and labels:
Salmonella typhimurium = assay: serial dilution test, MIC, Salmonella typhimurium; assay type: cell-based; conditions: Salmonella enterica, 37°, Gram-negative
Text: (§1) The components display the following Rf values in a thin layer chromatogram on silica gel plates from Messrs. Merck (silica gel 60, F254): in chloroform/methanol (9:1): X=0.58; I=0.81; in benzene/methanol (9:1): X=0.26; I=0.30; in chloroform/acetone (5:5): X=0.40; I=0.53; and in benzene/acetone (5:5): X=0.47; I=0.74. In a serial dilution test the following minimum inhibitory concentrations (MIC) were found for Lysolipin I: […]

[1] = titration / microtitration (pK); assay type: physicochemical
Text: (OCH3 : determination according to the method of Zeisel). Molecular weight, determined by vapour pressure osmometry in ethyl acetate; found 536. Microtitration with 0.1 N tetramethylammonium hydroxide in methylcellosolve/water (8:2): found pK^xMCS 9.72, equivalent weight 545. Titration with 0.1 N HCl; no step (N atom therefore not basic).

Candida lipolytica = assay: activity against yeast-like fungi, Candida lipolytica; assay type: cell-based
microbial cells = assay: activity against growing and dormant microbial cells and sphaeroplasts; assay type: cell-based; conditions: both growing and dormant cells
Candida albicans = assay: activity against yeast-like fungi, Candida albicans; assay type: cell-based
solubility = assay type: physicochemical
Saccaromyces cerevisiae = assay: activity against yeast-like fungi, Saccaromyces cerevisiae; assay type: cell-based
Micro-organisms = assay: MIC of Lysolipin X compared with Lysolipin I, serial dilution test; assay type: cell-based; conditions: Lysolipin X relative to Lysolipin I
Text: as §1

[2] = stability / conversion of Lysolipin X into Lysolipin I; assay type: physicochemical
Experimental: Lysolipin X was obtained as a colourless amorphous powder. […] The almost colourless amorphous powder thus obtained, that is to say Lysolipin X, can be crystallized from methanol; on heating the crystals undergo modification at 200° and melt at 260° C.
The pure product so obtained is stable in the absence of light and acid. In a thin layer chromatogram on silica gel in the system chloroform/methanol (39:1), Rf=0.22 (Rf of Lysolipin I=0.39). […] The signals at 0.9 and 1.3 ppm are probably to be ascribed to a fatty impurity. However, most of the signals in the range from 3 to 8 ppm are very similar to those of Lysolipin I and point to the close relationship between the two compounds.
On analogous working up, fractions 76-100 give an almost colourless amorphous powder (393 mg), which is Lysolipin X and cannot be purified by crystallisation. See FIGS. 7 and 8 for the NMR spectrum and the UV spectrum. On thin layer chromatography on silica gel in chloroform/methanol (39:1), Rf=0.22 (compared with 0.39 for Lysolipin I). On the thin layer plate, the spot for Lysolipin X, which is initially very pale and scarcely discernible, becomes deep yellow on standing in the air and, more rapidly, on warming.

COc1c(Cl)ccc2c(=O)c3c(O)c4c5c(c3oc12)OCOC5C(OC)c1cc2c(c(O)c1-4)C(=O)N(C)C(OC)C2O (stereo not drawn) [Lysolipin I]
MIC (Salmonella typhimurium): > 100 µg/mL
titration with HCl ([1]; 0.1 N HCl, N atom therefore not basic): no step
pKa ([1]; microtitration with 0.1 N tetramethylammonium hydroxide in methylcellosolve/water (8:2), read-out: pK^xMCS): 9.72
activity against yeast-like fungi (Candida lipolytica): display an activity
activity against growing and dormant microbial cells and their sphaeroplasts (microbial cells): active
activity against yeast-like fungi (Candida albicans): display an activity
solubility in organic solvents (solubility; acetone, dimethylformamide, dimethylsulphoxide, ethyl acetate, hydrocarbons, halogenated hydrocarbons): readily soluble
solubility in lower alkanols, ether and petroleum ether (solubility; methanol, ethanol, n-propanol, ether, petroleum ether): partially soluble
solubility in water and aqueous acids and bases (solubility; water and aqueous acids and bases): virtually insoluble
activity against yeast-like fungi (Saccaromyces cerevisiae): display an activity

COc1c(Cl)ccc2c(=O)c3c(oc12)C1=C2C(OCO1)C(OC)c1cc4c(c(O)c1C2(O)C3O)C(=O)N(C)C(OC)C4O (stereo not drawn) [Lysolipin X]
activity against yeast-like fungi (Candida lipolytica): display an activity
activity against growing and dormant microbial cells and their sphaeroplasts (microbial cells): active
activity against yeast-like fungi (Candida albicans): display an activity
factor by which the MIC is higher (Micro-organisms): 10-50
activity against yeast-like fungi (Saccaromyces cerevisiae): display an activity
stability to acid in solvent ([2]; chloroform or methanol with formic, acetic, hydrochloric or sulfuric acid): converted into Lysolipin I
stability on heating or irradiation with UV light ([2]; especially in the presence of catalytic amounts of acids): forms Lysolipin I
stability of impure material ([2]; impure): unstable
stability on storage ([2]; impure, stored in the air, unprotected from light, room temperature or higher): gradually converted into Lysolipin I
stability of pure product ([2]; in the absence of light and acid): stable
stability on thin layer plate ([2]; silica gel plate, standing in the air, more rapidly on warming): converted into Lysolipin I
